This note sets out measurements from article PMC3605511, “Tumor P-Glycoprotein Correlates with Efficacy of PF-3758309 in in vitro and in vivo Models of Colorectal Cancer” (Frontiers in Pharmacology, 2013).

For one assay, the system named is GEO cell line xenograft. The experiment in a line: CRC cell line xenograft efficacy, GEO. The class given is in vivo, mice. As to conditions: 25 mg/kg orally twice daily, 14–28 days, end of study tumor volumes. The protocol:
(§1) For cell line xenografts, CRC cells were harvested in exponential phase growth and resuspended in a 1:1 mixture of serum-free RPMI 1640 and Matrigel (BD Biosciences). Five to ten million cells per mouse were injected subcutaneously into the flank using a 23-gauge needle. Mice were monitored daily for signs of toxicity and were weighed twice weekly. Tumor size was evaluated twice per week by caliper measurements using the following formula: tumor volume = length × width^2 × 0.52. When tumors reached 200–300 mm^3 mice were randomized into two groups with at least 10 tumors per group. Mice were then treated for 14–28 days (until control tumor volume reach ∼1500 mm^3) with either vehicle control (0.5% methylcellulose), or PF-3758309 (25 mg/kg) twice daily by oral gavage.
(§2) Human tumor xenograft models were used to evaluate the efficacy of PF-309 in vivo. Eleven different CRC cell line tumor xenografts were treated with 25 mg/kg PF-309 twice daily by oral gavage for 14–28 days (until control tumor volumes reached ∼1500 mm^3). Tumor volumes were measured throughout the study and the % growth inhibition was calculated from the average end of study tumor volumes by:
(§3) % Growth Inhibition= (average control volume−average treated volume)/average control volume×100%

Assay [1] concerns SW480 cell line xenograft. The experiment in a line: CRC cell line xenograft efficacy, SW480. The class given is in vivo, mice. As to conditions: 25 mg/kg orally twice daily, 14–28 days, end of study tumor volumes. The protocol: as §1, §2, §3
Assay [2] relates to HCT15 cell line xenograft. The experiment in a line: CRC cell line xenograft efficacy, HCT15. Format: in vivo, mice. As to conditions: 25 mg/kg orally twice daily, 14–28 days, end of study tumor volumes. The protocol:
as §1, §2, §3

The test system of a further assay is SW1463. In words: Cell proliferation assay, SW1463. The class given is cell-based. As to conditions: Homo sapiens; SW1463, PF-309 alone, 72 h; 1 uM was the maximum concentration used. The protocol:
(§4) Cytotoxic/proliferation effects were determined using the sulforhodamine B (SRB) assay (Skehan et al., [1990]) or by resazurin. Briefly, cells in logarithmic growth phase were transferred to 96 well flat bottom plates with lids. One-hundred microliter cell suspensions containing 1500–5000 viable cells were plated into each well and incubated overnight prior to exposure with increasing concentrations of PF-309 for 3–5 days, dependent upon cell type. Media was removed and cells were fixed with cold 10% trichloroacetic acid for 30 min at 4°C. Cells were then washed with water and stained with 0.4% SRB (Fisher Sci., Pittsburgh, PA, USA) for 30 min at room temperature, washed again with 1% acetic acid, followed by stain solubilization with 10 mM tris at room temperature. The plate was then read on a plate reader (Biotek Synergy 2, Winooski, VT, USA) set at an absorbance wavelength of 565 nm. Cell proliferation curves were derived from the raw absorbance (OD) data.
Since PF-309 appeared to be a strong P-gp and BCRP substrates, we sought to evaluate if the transporters influenced sensitivity in vitro. We evaluated the sensitivity of CRC cell lines to PF-309 treatment in a panel of 27 lines. Cells were exposed to PF-309 at a range of concentrations for 72 h and cell content measured by SRB assay (see Pitts et al., [2013]). […]

Another assay has as its system DLD-1. In words: Cell proliferation assay, DLD-1. Format: cell-based, human. How it is done: as §4
In a subset of CRC cell lines, western blotting, and rhodamine efflux was used to verify the expression and function of P-gp. Consistent with the gene expression data, the sensitive cell lines, RKO, HCT116, and Colo205 show no P-gp expression and no functional P-gp, and the resistant lines, SW948, HCT15, and SW1116 express functional P-gp (Figures 3A,B). […]

As for `Cc1nc(Nc2n[nH]c3c2CN(C(=O)N[C@H](CN(C)C)c2ccccc2)C3(C)C)c2sccc2n1` [PF-309], the “% Growth inhibition” value with GEO cell line xenograft was found to be 42%; in assay [1], 42%; in assay [2], 18%. For the same compound, the IC50 in the assay with SW1463 was above 1000 nM; in the assay with DLD-1 (Homo sapiens, DLD-1, PF-309 alone, 72 h), 278 nM. Besides, in the assay on DLD-1 (DLD-1 cells, P-gp knockdown vs control shRNA), the “shift in the IC50 by shRNA knockdown of P-gp” value is recorded as “four to six fold”.

As usually defined, the IC50 is the concentration that inhibits the measured activity by half.
